Experimental data published in patent US20230295157A1, “3-(1H-IMIDAZOL-2-YL)-2,3,8,8A-TETRAHYDROINDOLIZIN-5(1H)-ONE DERIVATIVES USEFUL AS FACTOR XIA INHIBITORS” (JANSSEN PHARMACEUTICA NV, priority 2020, published 2023).
Read-outs that look alike come from different tables or passages of the source.

Experiments:
Factor XIa = Factor XIa (Homo sapiens (Human), UniProt P03951); experiment: Factor XIa inhibition assay (FLINT) utilizing a fluorophore-quencher pair peptide substrate; format: biochemical; conditions: 30 min preincubation, kinetic reads over 30 min, read-out: FXIa Kin Inh IC50
Chain of Factor XIa (P03951 388-625): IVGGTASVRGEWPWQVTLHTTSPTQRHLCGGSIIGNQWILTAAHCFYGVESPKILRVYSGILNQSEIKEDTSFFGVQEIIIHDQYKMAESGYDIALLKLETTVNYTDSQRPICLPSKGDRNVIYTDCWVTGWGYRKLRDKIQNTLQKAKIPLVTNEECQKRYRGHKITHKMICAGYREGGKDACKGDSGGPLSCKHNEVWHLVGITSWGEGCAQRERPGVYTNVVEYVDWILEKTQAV
Chain of Factor XIa (P03951 19-387 partner): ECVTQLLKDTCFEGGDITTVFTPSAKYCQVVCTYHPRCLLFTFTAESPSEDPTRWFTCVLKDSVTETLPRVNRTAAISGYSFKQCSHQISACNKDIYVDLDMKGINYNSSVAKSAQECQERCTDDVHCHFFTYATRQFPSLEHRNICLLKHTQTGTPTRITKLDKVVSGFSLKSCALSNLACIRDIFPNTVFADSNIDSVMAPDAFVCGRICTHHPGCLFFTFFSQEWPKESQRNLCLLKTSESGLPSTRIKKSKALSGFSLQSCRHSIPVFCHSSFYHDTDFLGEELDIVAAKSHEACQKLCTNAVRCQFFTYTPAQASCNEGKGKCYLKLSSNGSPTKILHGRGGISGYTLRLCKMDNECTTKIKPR
Procedure, shortened: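 FXIa ([…]) preincubated 30 min with compound (11-point 3-fold dilution, top 100 nM, 2% DMSO), then 15 μM quenched FXI Arg146-based peptide added; Tris pH 7.5, CaCl2, BSA, CHAPS. Fluorescence 485/520 nm read kinetically every 5 min over 30 min at RT; IC50 by 4-parameter fit.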

human plasma kallikrein = human plasma kallikrein (Homo sapiens (Human), UniProt P03952); experiment: Kallikrein inhibition assay (FLINT) utilizing a quenched AMC peptide substrate; format: biochemical; conditions: 30 min preincubation, kinetic reads over 30 min, Z-Gly-Pro-Arg-AMC substrate 50 μM; read-out: Kallikrein Kin Inh IC50
Chain of human plasma kallikrein (P03952 391-638): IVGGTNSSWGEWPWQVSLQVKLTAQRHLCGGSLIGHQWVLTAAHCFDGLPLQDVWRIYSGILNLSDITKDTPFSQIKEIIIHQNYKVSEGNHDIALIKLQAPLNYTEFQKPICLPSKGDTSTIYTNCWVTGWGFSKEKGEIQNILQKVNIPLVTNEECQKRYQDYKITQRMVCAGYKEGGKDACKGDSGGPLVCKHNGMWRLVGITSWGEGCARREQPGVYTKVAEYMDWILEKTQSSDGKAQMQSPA
Chain of human plasma kallikrein (P03952 20-390 partner): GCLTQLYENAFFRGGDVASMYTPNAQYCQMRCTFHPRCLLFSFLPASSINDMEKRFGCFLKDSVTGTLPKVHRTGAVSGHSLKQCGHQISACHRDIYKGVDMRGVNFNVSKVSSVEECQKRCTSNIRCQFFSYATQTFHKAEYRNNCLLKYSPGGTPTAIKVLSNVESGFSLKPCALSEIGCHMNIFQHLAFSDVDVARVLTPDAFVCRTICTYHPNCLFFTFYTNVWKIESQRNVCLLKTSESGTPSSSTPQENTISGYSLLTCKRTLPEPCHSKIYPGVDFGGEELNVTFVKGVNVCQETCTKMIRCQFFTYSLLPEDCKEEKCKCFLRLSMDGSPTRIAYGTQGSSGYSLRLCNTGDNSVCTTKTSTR
Procedure, shortened: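 Fluorogenic Z-Gly-Pro-Arg-AMC cleavage (50 μM substrate, 2 nM kallikrein, Tris pH 7.5, CaCl2, BSA, CHAPS, 2% DMSO) read kinetically at 340/440 nm for 30 min after 30-min compound pre-incubation. Compounds in 11-point 3-fold series from 1 μM; percent inhibition fitted to four-parameter equation for IC50.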

[1] = 5Fam-[…]-K5Tamra substrate 15 μM
[2] = 5Fam-KLTRAETV-K5Tamra substrate 15 μM

| IC50 (Factor XIa; [1]) [nM] | IC50 (human plasma kallikrein) [nM] | IC50 (Factor XIa; [2]) [nM] | Compound |
| --- | --- | --- | --- |
| 10.3 | 9.6 |  | N#CC1CN(c2nccc(-c3cnc([C@H]4CC[C@@H]5CC(c6c(-n7cnnn7)ccc(Cl)c6F)=CC(=O)N54)[nH]3)c2F)C1 (single isomer, unassigned) [Example 102, 1-(4-(24(3R*,8aR)-7-(3-chloro-2-fluoro-6-(1H-tetrazol-1-yl)phenyl)-5-oxo-1,2,3,5,8,8a-hexahydroindolizin-3-yl)-1H-imidazol-5-yl)-3-fluoropyridin-2-yl)azetidine-3-carbonitrile] |
|  | 0.7 | 0.3 | O=C1CCc2cc(-c3cnc([C@@H]4CCC5CC(c6c(-n7cnnn7)ccc(Cl)c6F)=CC(=O)N54)[nH]3)ccc2N1 (stereo partly drawn) [Example 311, 6-(2-((3S)-7-(3-Chloro-2-fluoro-6-(1H-tetrazol-1-yl)phenyl)-5-oxo-1,2,3,5,8,8a-hexahydroindolizin-3-yl)-1H-imidazol-5-yl)-3,4-dihydroquinolin-2(1H)-one] |
|  | 8.9 | 0.6 | [2H]c1c(N)nc(F)c(-c2cnc([C@@H]3CC[C@@H]4CC(c5c(-n6cnnn6)ccc(Cl)c5F)=CC(=O)N43)[nH]2)c1[2H] [Example 151, (3S,8aR)-3-[5-(6-amino-4,5-dideuterio-2-fluoro-3-pyridyl)-1H-imidazol-2-yl]-7-[3-chloro-2-fluoro-6-(tetrazol-1-yl)phenyl]-2,3,8,8a-tetrahydro-1H-indolizin-5-one] |
|  | 7.3 | 2.7 | O=C1C=C(c2c(-n3cc(C(F)(F)F)nn3)ccc(Cl)c2F)CC2CC[C@@H](c3ncc(-c4c[nH]c5ncncc45)[nH]3)N12 (stereo partly drawn) [Example 365, (3S)-3-(5-(7H-pyrrolo[2,3-d]pyrimidin-5-yl)-1H-imidazol-2-yl)-7-(3-chloro-2-fluoro-6-(4-(trifluoromethyl)-1H-1,2,3-triazol-1-yl)phenyl)-2,3,8,8a-tetrahydroindolizin-5(1H)-one] |
|  | 342 | 54.9 | NC(=O)c1ccc(-c2cnc([C@@H]3CC[C@@H]4CC(c5c(-n6cnnn6)ccc(Cl)c5F)=CC(=O)N43)[nH]2)c(Cl)n1 [Example 229, 6-Chloro-5-(2-((3S,8aR)-7-(3-chloro-2-fluoro-6-(1H-tetrazol-1-yl)phenyl)-5-oxo-1,2,3,5,8,8a-hexahydroindolizin-3-yl)-1H-imidazol-5-yl)picolinamide] |
|  | 33.7 | 5.1 | [2H]C([2H])(O)c1nccc(-c2cnc([C@@H]3CC[C@]4([2H])CC(c5c(-n6cnnn6)ccc(Cl)c5F)=CC(=O)N34)[nH]2)c1F (single isomer, unassigned) [Example 36] |
|  | 11.6 | 0.4 | [2H]c1cc(-c2cnc([C@@H]3CC[C@@H]4CC(c5cc(Cl)ccc5-n5cnnn5)=CC(=O)N43)[nH]2)c(F)nc1N [Example 124, (3S,8aR)-3-[5-(6-amino-5-deuterio-2-fluoro-3-pyridyl)-1H-imidazol-2-yl]-7-[5-chloro-2-(tetrazol-1-yl)phenyl]-2,3,8,8a-tetrahydro-1H-indolizin-5-one] |
| 13.8 | 19.1 |  | O=C1C=C(c2c(-n3cnnn3)ccc(Cl)c2F)C[C@H]2CC[C@H](c3ncc(-c4ccnc(OC[C@@H]5COCCO5)c4F)[nH]3)N12 (relative stereo) [Example 156, (3*R,8aR)-3-(5-(2-(((S)-1,4-dioxan-2-yl)methoxy)-3-fluoropyridin-4-yl)-1H-imidazol-2-yl)-7-(3-chloro-2-fluoro-6-(1H-tetrazol-1-yl)phenyl)-2,3,8,8a-tetrahydroindolizin-5(1H)-one] |
| 5.7 | 22.7 |  | CC1(C)C[C@@H](c2ncc(-c3ccc(N)nc3Cl)[nH]2)N2C(=O)C=C(c3c(-n4cnnn4)ccc(Cl)c3F)C[C@@H]21 (relative stereo) [Example 335, (3S,8aR)-3-(5-(6-Amino-2-chloropyridin-3-yl)-1H-imidazol-2-yl)-7-(3-chloro-2-fluoro-6-(1H-tetrazol-1-yl)phenyl)-1,1-dimethyl-2,3,8,8a-tetrahydroindolizin-5(1H)-one] |
|  | 6.1 | 0.7 | O=C1C=C(c2c(-n3cnnn3)ccc(Cl)c2F)C[C@H]2CC[C@@H](c3ncc(-c4ccnc5c4OCCO5)[nH]3)N12 [Example 361, (3S,8aR)-7-[3-chloro-2-fluoro-6-(tetrazol-1-yl)phenyl]-3-[5-(2,3-dihydro-[1,4]dioxino[2,3-b]pyridin-8-yl)-1H-imidazol-2-yl]-2,3,8,8a-tetrahydro-1H-indolizin-5-one] |
|  | 0.6 | 1 | NC(=O)c1cc(-c2cnc([C@@H]3CC[C@@H]4CC(c5c(-n6cnnn6)ccc(Cl)c5F)=CC(=O)N43)[nH]2)cs1 [Example 234, 4 (2-((3S,8aR)-7-(3-Chloro-2-fluoro-6-(1H-tetrazol-1-yl)phenyl)-5-oxo-1,2,3,5,8,8a-hexahydroindolizin-3-yl)-1H-imidazol-5-yl)thiophene-2-carboxamide] |
